Reference: US8536227B2, “Modulators of protein kinase signaling” (Novotyr Therapeutics Ltd., priority 2008, dated 2013)

What was measured:
[1] = test system: IGF1R related cell signaling in human melanoma A375 cells; settings: FIGS. 14 and 16; for IGF1-induced tyrosine phosphorylation of IRS1: 50 ng/ml IGF-1 stimulation
Experimental: (§2) Tyrosine autophosphorylation of the β-subunit of IGF1R as well as downstream signaling induced by IGF1R were assayed in human breast cancer MCF7 cells and in melanoma A375 cells. Cells were seeded in 6-well plates (250,000 cells/well) and 24 hours later medium was replaced by serum-free medium (RPMI supplemented with 100 units/ml penicillin and 100 μg/ml streptomycin). Following 20 hours of serum-starvation, medium was replaced with serum-free medium containing various concentrations of the inhibitors in 0.1% DMSO for an additional 4-5 hours. […] Equal amounts of protein per lane were separated by 8% SDS-PAGE and transferred to a nitrocellulose membrane (Sartorius AG). […] Detection was performed with horseradish peroxidase-conjugated secondary antibody using the ECL system. Blots were then stripped of antibodies, blocked with TBST with 5% low fat milk and re-probed with antibodies detecting both the phosphorylated and the non-phosphorylated corresponding proteins e.g. IGF1Rβ, IRS1, PKB, and ERK. Anti-actin antibodies served as control.
(§3) In addition, lysates were prepared from cells exposed to inhibitors at various concentrations for 24 hours in the presence or the absence of FCS without stimulation. Lysate preparation and western blot were performed as described above.

[2] = test system: Human ovary cancer A2780 cells xenografts; assay: Inhibition of ovarian A2780 tumor growth in vivo (xenograft); design: species or system Nude:Hsd mice; settings: A2780 xenograft in nude mice
Experimental: Groups were composed of 7-8 mice per group.
The procedure was followed for the A2780 ovary cancer cell in-vivo study with the following modifications:
The Veh group received PBS. The CDDP group received 8 mg/kg CDDP (Cisplatin) twice a week.

[3] = test system: IGF1R related cell signaling in human breast cancer MCF7 cells; settings: FIG. 15; for IGF1-induced tyrosine phosphorylation of IRS1: 50 ng/ml IGF-1 stimulation
Experimental: as §2, §3

[4] = test system: A375 cells; assay: cells; settings: Homo sapiens, A-375, 168 h, read-out: CF (colony formation in soft agar) IC50
Experimental: (§1) Suspensions of separated A375 and U138MG cells were plated in 50 μl growth medium containing 0.3% agar on top of a 100 μl layer of growth medium containing 1% agar in 96-well plates. Growth medium (50 μl) supplemented with inhibitors at various concentrations was added on top. Six to seven days after plating, colonies were stained with 0.5% MTT for 4 hours, and dye was then extracted by the addition of 100 μl dissolving buffer, containing 5 gr sodium dodecyl sulfate, 8.75 ml DDW, 12.5 ml dimethyl formamide, 0.5 ml acetic acid and 0.07 ml HCl. Following incubation overnight at 37° C., optical density values were read at 570 nm in ELISA plate reader. The data was analyzed in Microsoft Excel, using the vehicle control as 100% proliferation. The assays were performed in triplicates. The values of IC50 were derived from the dose-dependent growth curves obtained.

[5] = test system: U138MG cells; assay: cells; settings: Homo sapiens, U138-MG, 168 h, read-out: CF (colony formation in soft agar) IC50
Experimental: as §1

[6] = test system: Human melanoma A375 cells xenografts; settings: A375 xenograft in nude mice, IP 50 mg/kg daily or 100 mg/kg every other day
Experimental: Human melanoma A375 cells (ATCC, 2×10^6 cells per mouse) were injected subcutaneously into the flank of Nude:Hsd mice. Eight days later, when tumors were formed, mice were divided into 3 groups with similar average tumor size of 120 mm^3. […] The Veh group received daily 2% EtOH, 6% Tween-80 in DDW at volume of 10 ml/kg. Groups were composed of 7-8 mice per group. The length (l) and the width (w) of the tumors were measured twice a week, as well as the mouse body weight. The volumes of the tumors were calculated as follows: v=lw^2/2. Graphs present average volumes of the tumors versus days following treatment initiation.
The mice were treated with daily or alternate day IP injections, at the specified doses.

Row | SMILES | IGF1-induced tyrosine phosphorylation of IRS1 [1] | serine phosphorylation of IRS1 (pS636/639-IRS1) and IRS1 level [1] | inhibition of ovarian tumor growth ([2]; 8 mg/kg twice a week) | IGF1-induced tyrosine phosphorylation of IRS1 [3] | serine phosphorylation of IRS1 (pS636/639-IRS1) and IRS1 level [3] | IC50 [4] | IC50 [5] | inhibition of melanoma tumor growth [6] | inhibition of ovarian tumor growth ([2]; IP daily 25 mg/kg in PBS)
1 | Oc1cc(Br)c(/C=C/C(=S)NCc2cc(O)c(O)c(O)c2)cc1O [Compound 6] | inhibited | induce serine phosphorylation of IRS1, followed by its degradation | – | – | – | – | – | – | –
2 | [NH2][Pt]([NH2])([Cl])[Cl] [CDDP, Cisplatin, reference compound] | – | – | 14% | – | – | – | – | – | –
3 | Oc1cc(CNC(=S)/C=C/c2ccc(O)c(O)c2Br)cc(O)c1O [Compound 5] | inhibited | induce serine phosphorylation of IRS1, followed by its degradation | – | inhibited | induce serine phosphorylation of IRS1, followed by its degradation | 400 nM | 2600 nM | 70% | 45%
4 | Oc1cc(/C=C/C(=S)NCc2cc(O)c(O)c(O)c2Br)cc(Br)c1O [Compound 4] | – | – | – | inhibited | induce serine phosphorylation of IRS1, followed by its degradation | – | – | – | –
